{"source": "patent US12582638B2", "about": "“Pharmaceutical composition for treating cancer, containing mTOR-signaling inhibitor as active ingredient” (KOREA ADVANCED INSTITUTE OF SCIENCE AND TECHNOLOGY, priority 2020, dated 2026)", "assay_in_all_cases": "Cell viability, CellTiterGlo, 72 hours", "type_in_all_cases": "cell-based", "key": {"HCT116": {"test_system": "HCT116", "conditions": "Homo sapiens, HCT-116, HCT116 cells, Colon", "protocol": "(§1) In addition to the colorectal cells, 120 cancer cell lines treated with various concentrations of lomitapide were assayed for viability. To analyze cell viability, the cells were incubated with lomitapide at 37° C. for 72 hours in a 5% or 10% CO2 atmosphere and then equilibrated at room temperature for 1 hour, followed by addition of CellTiterGlo reagent (Promega). One hour later, luminescence was measured to calculate cell viability (%). The 120 cell lines were purchased from ATCC (American Type Culture Collection, Virginia, USA)."}, "NCI-H838": {"test_system": "NCI-H838", "conditions": "Homo sapiens, NCI-H838 cells, Lung", "protocol": "as §1"}, "NCI-H2110": {"test_system": "NCI-H2110", "conditions": "NCI-H2110 cells, Lung", "protocol": "as §1"}, "MDA MB 231": {"test_system": "MDA MB 231", "conditions": "Homo sapiens, MDA MB 231 cells, Breast", "protocol": "as §1"}, "MOLT-4": {"test_system": "MOLT-4", "conditions": "Homo sapiens, MOLT-4 cells, Blood", "protocol": "as §1"}, "A549": {"test_system": "A549", "conditions": "Homo sapiens, A549 cells, Lung", "protocol": "as §1"}, "MKN-45": {"test_system": "MKN-45", "conditions": "Homo sapiens, MKN-45 cells, Stomach", "protocol": "as §1"}, "RL95-2": {"test_system": "RL95-2", "conditions": "Homo sapiens, RL95-2 cells, Endometrium", "protocol": "as §1"}, "Hutu 80": {"test_system": "Hutu 80", "conditions": "Homo sapiens, HuTu80, Hutu 80 cells, Duodenum", "protocol": "as §1"}, "Hep3B2.1-7": {"test_system": "Hep3B2.1-7", "conditions": "Hep3B2.1-7 cells, Liver", "protocol": "as §1"}, "HT-29": {"test_system": "HT-29", "conditions": "Homo sapiens, HT-29 cells, Colon", "protocol": "as §1"}, "KG-1": {"test_system": "KG-1", "conditions": "Homo sapiens, KG-1 cells, Blood", "protocol": "as §1"}, "NCI-H2009": {"test_system": "NCI-H2009", "conditions": "Homo sapiens, NCI-H2009 cells, Lung", "protocol": "as §1"}, "RPMI 8226": {"test_system": "RPMI 8226", "conditions": "Homo sapiens, RPMI 8226 cells, Blood", "protocol": "as §1"}, "COR-L279": {"test_system": "COR-L279", "conditions": "Homo sapiens, COR-L279 cells, Lung", "protocol": "as §1"}, "SK-N-SH": {"test_system": "SK-N-SH", "conditions": "Homo sapiens, SK-N-SH cells, Brain", "protocol": "as §1"}, "T84": {"test_system": "T84", "conditions": "Homo sapiens, T84 cells, Colon", "protocol": "as §1"}, "LOVO": {"test_system": "LOVO", "conditions": "Homo sapiens, LOVO cells, Colon", "protocol": "as §1"}, "OVCAR-3": {"test_system": "OVCAR-3", "conditions": "Homo sapiens, OVCAR-3 cells, Ovary", "protocol": "as §1"}, "HL-60": {"test_system": "HL-60", "conditions": "Homo sapiens, HL-60 cells, Blood", "protocol": "as §1"}, "Colo 205": {"test_system": "Colo 205", "conditions": "Homo sapiens, Colo 205 cells, Colon", "protocol": "as §1"}, "H2228": {"test_system": "H2228", "conditions": "Homo sapiens, NCI-H2228, H2228 cells, Lung", "protocol": "as §1"}, "U2OS": {"test_system": "U2OS", "conditions": "Homo sapiens, U2OS cells, Bone", "protocol": "as §1"}, "A375": {"test_system": "A375", "conditions": "Homo sapiens, A-375, A375 cells, Skin", "protocol": "as §1"}, "BEN": {"test_system": "BEN", "conditions": "BEN cells, Lung", "protocol": "as §1"}, "OCI-AML5": {"test_system": "OCI-AML5", "conditions": "Homo sapiens, OCI-AML-5, OCI-AML5 cells, Blood", "protocol": "as §1"}, "LnCap": {"test_system": "LnCap", "conditions": "Homo sapiens, LnCap cells, Prostate", "protocol": "as §1"}, "HCT-15": {"test_system": "HCT-15", "conditions": "Homo sapiens, HCT-15 cells, Colon", "protocol": "as §1"}, "MCAS": {"test_system": "MCAS", "conditions": "MCAS cells, Ovary", "protocol": "as §1"}, "NCI-H1581": {"test_system": "NCI-H1581", "conditions": "Homo sapiens, NCI-H1581 cells, Lung", "protocol": "as §1"}, "DV90": {"test_system": "DV90", "conditions": "Homo sapiens, DV-90, DV90 cells, Lung", "protocol": "as §1"}, "OCI-LY19": {"test_system": "OCI-LY19", "conditions": "Homo sapiens, OCI-LY19 cells, Blood", "protocol": "as §1"}, "NCI-H1573": {"test_system": "NCI-H1573", "conditions": "Homo sapiens, NCI-H1573 cells, Lung", "protocol": "as §1"}, "HT-1080": {"test_system": "HT-1080", "conditions": "Homo sapiens, HT-1080 cells, Fibrosarcoma", "protocol": "as §1"}, "SCLC-21H": {"test_system": "SCLC-21H", "conditions": "Homo sapiens, SCLC-21H cells, Lung", "protocol": "as §1"}, "SW948": {"test_system": "SW948", "conditions": "Homo sapiens, SW948 cells, Colon", "protocol": "as §1"}, "RERF-LC-Ad2": {"test_system": "RERF-LC-Ad2", "conditions": "RERF-LC-Ad2 cells, Lung", "protocol": "as §1"}, "HEC-1-A": {"test_system": "HEC-1-A", "conditions": "Homo sapiens, HEC-1-A cells, Endometrium", "protocol": "as §1"}, "SK-N-FI": {"test_system": "SK-N-FI", "conditions": "Homo sapiens, SK-N-FI cells, Brain", "protocol": "as §1"}, "J82": {"test_system": "J82", "conditions": "Homo sapiens, J82 cells, Bladder", "protocol": "as §1"}}}
{"smiles": "O=C(NC1CCN(CCCCC2(C(=O)NCC(F)(F)F)c3ccccc3-c3ccccc32)CC1)c1ccccc1-c1ccc(C(F)(F)F)cc1", "note": "[lomitapide, N-(2,2,2-trifluoroethyl)-9-[4-[4-[[[4′-(trifluoromethyl)[1,1′-biphenyl]2-yl]carbonyl]amino]-1-piperidinyl]butyl]-9H-fluoren-9-carboxamide]", "values": [{"measurement": "IC50", "setting": "HCT116", "result": 5, "unit": "µM"}, {"measurement": "IC50", "setting": "NCI-H838", "result": 3.8, "unit": "µM"}, {"measurement": "IC50", "setting": "NCI-H2110", "result": 3.3, "unit": "µM"}, {"measurement": "IC50", "setting": "MDA MB 231", "result": 3.2, "unit": "µM"}, {"measurement": "IC50", "setting": "MOLT-4", "result": 3.6, "unit": "µM"}, {"measurement": "IC50", "setting": "A549", "result": 3.6, "unit": "µM"}, {"measurement": "IC50", "setting": "MKN-45", "result": 3.9, "unit": "µM"}, {"measurement": "IC50", "setting": "RL95-2", "result": 3.2, "unit": "µM"}, {"measurement": "IC50", "setting": "Hutu 80", "result": 3, "unit": "µM"}, {"measurement": "IC50", "setting": "Hep3B2.1-7", "result": 2.7, "unit": "µM"}, {"measurement": "IC50", "setting": "HT-29", "result": 1.6, "unit": "µM"}, {"measurement": "IC50", "setting": "KG-1", "result": 5.7, "unit": "µM"}, {"measurement": "IC50", "setting": "NCI-H2009", "result": 3.3, "unit": "µM"}, {"measurement": "IC50", "setting": "RPMI 8226", "result": 2.1, "unit": "µM"}, {"measurement": "IC50", "setting": "COR-L279", "result": 2.7, "unit": "µM"}, {"measurement": "IC50", "setting": "SK-N-SH", "result": 3.2, "unit": "µM"}, {"measurement": "IC50", "setting": "T84", "result": 3.2, "unit": "µM"}, {"measurement": "IC50", "setting": "LOVO", "result": 3.4, "unit": "µM"}, {"measurement": "IC50", "setting": "OVCAR-3", "result": 5.3, "unit": "µM"}, {"measurement": "IC50", "setting": "HL-60", "result": 3.3, "unit": "µM"}, {"measurement": "IC50", "setting": "Colo 205", "result": 3.4, "unit": "µM"}, {"measurement": "IC50", "setting": "H2228", "result": 5.3, "unit": "µM"}, {"measurement": "IC50", "setting": "U2OS", "result": 2.8, "unit": "µM"}, {"measurement": "IC50", "setting": "A375", "result": 1.8, "unit": "µM"}, {"measurement": "IC50", "setting": "BEN", "result": 4.2, "unit": "µM"}, {"measurement": "IC50", "setting": "OCI-AML5", "result": 2.7, "unit": "µM"}, {"measurement": "IC50", "setting": "LnCap", "result": 3.5, "unit": "µM"}, {"measurement": "IC50", "setting": "HCT-15", "result": 3.5, "unit": "µM"}, {"measurement": "IC50", "setting": "MCAS", "result": 4.5, "unit": "µM"}, {"measurement": "IC50", "setting": "NCI-H1581", "result": 3.7, "unit": "µM"}, {"measurement": "IC50", "setting": "DV90", "result": 5.2, "unit": "µM"}, {"measurement": "IC50", "setting": "OCI-LY19", "result": 2.8, "unit": "µM"}, {"measurement": "IC50", "setting": "NCI-H1573", "result": 4.7, "unit": "µM"}, {"measurement": "IC50", "setting": "HT-1080", "result": 3.9, "unit": "µM"}, {"measurement": "IC50", "setting": "SCLC-21H", "result": 3, "unit": "µM"}, {"measurement": "IC50", "setting": "SW948", "result": 4.5, "unit": "µM"}, {"measurement": "IC50", "setting": "RERF-LC-Ad2", "result": 2.6, "unit": "µM"}, {"measurement": "IC50", "setting": "HEC-1-A", "result": 4.9, "unit": "µM"}, {"measurement": "IC50", "setting": "SK-N-FI", "result": 3.4, "unit": "µM"}, {"measurement": "IC50", "setting": "J82", "result": 3.6, "unit": "µM"}]}
